Test results taken from patent publication US20120046321A1, “METHODS OF TREATING ATRIAL FIBRILLATION WITH P38 INHIBITOR COMPOUNDS” (INTERMUNE, INC., priority 2005, published 2012).
Entries after “also recorded” stand apart in the source; their conditions may differ.

Legend:
[1] = system: tissue inhibitor of metalloproteinase (TIMP)-4; assay: Western blot of atrial tissue; assay type: in vivo, canine; settings: 3 groups
[2] = system: canines with ventricular tachypacing (VTP)-induced congestive heart failure (CHF); assay: AF inducibility in open-chest EP study (single extrastimulus and burst pacing); assay type: in vivo, canine
Source text: Briefly, 15 adult mongrel canines (weight 20 to 32 kgs) were divided into 3 groups (n=5 in each group) as follows: Group 1: Normal; Group 2: CHF canines not treated with PFD (or CHF); and Group 3: CHF canines treated with PFD (or CHF+PFD). […] The CHF and CHF+PFD canines underwent placement of a permanent single-chamber pacemaker with the pacing lead positioned in the right ventricular apex followed by radiofrequency catheter ablation of the AV junction to create complete heart block. Canines in the CHF and CHF+PFD groups underwent 3 weeks of VTP at a rate of 220 bpm. […] Effective refractory periods (ERPs) were measured at 12 atrial sites (6 in LA, 6 in RA) using the single extrastimulus protocol (S1S2) at an 8-beat drive train basic cycle lengths (BCLs) of 200, 300, and 400 ms. During stimulation of the contralateral Bachmann's bundle, conduction velocity (CV) was calculated between pairs of plaque electrodes perpendicular to the activation wavefront with a custom-written software. […] Two measures were derived to quantify conduction heterogeneity: 1) absolute conduction heterogeneity, defined as P95-P5 (P95-5), and 2) conduction heterogeneity index, defined as the absolute conduction heterogeneity normalized by the median phase, or P95-5/P50. […]

Cc1ccc(=O)n(-c2ccccc2)c1 [PFD, 5-methyl-1-phenyl-2-(1H)-pyridone]
Expression of TIMP-4 [1]: unchanged; also recorded: not markedly changed
Mean AF duration ([2]; CHF+PFD, p<0.009 vs. CHF (1488±698 secs), Normal 16±25 secs): 12 ± 13 s
Sustained AF ([2]; open-chest experiments, untreated CHF 4/5, p<0.007): only observed in the untreated CHF canines
